Results reported in doi:10.1101/144204v1, “On the use of the experimentally determined enzyme inhibition constant as a measure of absolute binding affinity” (biorxiv, 2017).
Where a name gives a salt, the structure may show the parent alone.

Target: T1, eeAChE (Electrophorus electricus acetylcholinesterase) (Electrophorus electricus, UniProt O42275)
T1 construct: gene ache; construct details not given
Assay: Ellman assay (ATCh/DTNB, […] nm), Lineweaver-Burk
Type: biochemical

T1 sequence (O42275 24-633): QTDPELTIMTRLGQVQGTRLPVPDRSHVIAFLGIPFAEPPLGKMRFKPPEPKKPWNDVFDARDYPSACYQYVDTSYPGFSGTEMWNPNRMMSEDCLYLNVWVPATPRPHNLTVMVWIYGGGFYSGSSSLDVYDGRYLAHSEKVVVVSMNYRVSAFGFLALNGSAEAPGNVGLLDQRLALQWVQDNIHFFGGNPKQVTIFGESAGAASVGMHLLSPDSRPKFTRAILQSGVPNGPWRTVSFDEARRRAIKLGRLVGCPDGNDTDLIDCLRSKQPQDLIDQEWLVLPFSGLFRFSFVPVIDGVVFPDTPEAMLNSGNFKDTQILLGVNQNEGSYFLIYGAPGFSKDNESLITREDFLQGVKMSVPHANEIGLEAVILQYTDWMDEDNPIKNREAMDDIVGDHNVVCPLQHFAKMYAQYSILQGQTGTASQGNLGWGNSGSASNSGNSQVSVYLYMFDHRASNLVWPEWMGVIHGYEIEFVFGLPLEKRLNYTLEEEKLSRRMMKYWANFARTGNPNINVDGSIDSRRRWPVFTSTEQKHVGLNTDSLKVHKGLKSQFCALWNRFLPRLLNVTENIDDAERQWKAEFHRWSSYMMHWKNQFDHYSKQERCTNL

Compound: c1ccc2c(NCCCCCCCNc3c4c(nc5ccccc35)CCCC4)c3c(nc2c1)CCCC3 [bis(7)-tacrine, 1,7-N-heptylene-bis-9,9'-amino-1,2,3,4-tetrahydro-acridinium dihydrochloride]
- Ki: 2.9 ± 0.4 pM
